Reference: publication PMC11778240, “Synthesis and preclinical evaluation of tigilanol tiglate analogs as latency-reversing agents for the eradication of HIV” (Science Advances, 2025)

What was measured:
NF-κB pathway = experiment: NF-κB activation assay, A549 cells with SEAP reporter; type: cell-based, Human; conditions: for NF-κB activation (optical density, 630 nm): 24 hours after dosing; for NF-κB activation (optical density, 630 nm) / NF-κB activation in words: A549 cells; for NF-κB activation in words: 50 and/or 500 nM; for NF-κB activation in words / NF-κB activation, times the basal level (DMSO control): 24 hours
Excerpt: As a high-throughput method of screening compounds for their ability to get into cells and activate immunological pathways related to HIV latency reversal ([46], [70]), we conducted an NF-κB reporter assay using A549 cells stably integrated with a secreted embryonic alkaline phosphatase reporter under the control of a promoter fused to five NF-κB binding sites (Fig. 7B) ([48], [70], [71]).
Human A549-Dual™ Cells supplied by InvivoGen (Cat. code a549d-nfis) and CHO-K1 cells were passaged when about 90% confluency was reached (approximately every three days). With each passage, media was aspirated from the cell layer, which was then washed with PBS. Following aspiration of the PBS, cells were detached from the culture flask with 0.25% GibcoTM Trypsin-EDTA and transferred to a 50 mL conical, which was volumed up with complete pre-warmed DMEM (4.5 g/L glucose, 10% FBS, and 1% Pen-Strep-Glutamine (100 X, 50 mg/mL)) or Ham's F-12K (Kaighn's) Medium supplemented with 10% FBS and 1% Pen-Strep (100 X, 50 mg/mL).
This conical was spun down at 1800 rpm for 3 minutes, the supernatant was removed, and cells were resuspended in their respective fresh, pre-warmed media. To count cells, 10 μL of resuspended cells were added to a sterile microcentrifuge tube and mixed with 10 μL of trypan blue after which 10 μL of the mixture was pipetted into a Countess chamber slide. A Countess™ 3 Automated Cell Counter was subsequently utilized to determine cell viability and concentration.
1 x 10^6 cells were seeded with each passage into a T75 culture flask, and cells were incubated at […]
Human A549 lung carcinoma cells (InvivoGen Cat. code a549d-nfis), stably integrated with a secreted embryonic alkaline phosphatase (SEAP) reporter, allow for the activity of the NF-κB pathway to be monitored. The SEAP reporter is under control of the interferon β (IFN-β) minimal promoter, which is fused to five NF-κB binding sites.
5 × 10^4 A549 cells were plated on Corning® 96 Well TC-Treated Microplates (CLS3595) in 180 μl of pre-warmed DMEM (4.5 g/L glucose, 10% heat-inactivated FBS (30 min at 56 ℃), and 1% Pen-Strep-Glutamine (100 X, 50 mg/mL)). Note that if cells were grown in media containing FBS that is not heat-inactivated, media will contain alkaline phosphatase. In this case, all supernatant must thoroughly be aspirated from the cell pellet obtained after centrifugation before resuspending cells in media containing heat inactivated FBS for plating. Following incubation at 37 °C in 5% CO2 for approximately 24 hours to allow for cell adherence onto the 96 well plate, 1.8 μL of each compound dissolved in DMSO was added in quadruplicate to their respective wells to achieve a final compound concentration of 1500 nM, 500 nM, or 50 nM. 1.8 μL of DMSO was added to wells as negative controls while wells treated with EBC-46 served as positive controls. 24 hours following compound addition, 180 μL of QUANTI-BlueTM Solution (InvivoGen Cat. code rep-qbs)- medium containing QB buffer and QB Reagent for detection and quantification of alkaline phosphatase- were added into wells on a new clear flat-bottom 96-well plate. 20 μL of supernatant of either SEAP-expressing cells incubated with compound or SEAP-expressing cells incubated with DMSO only were added to the wells in the new 96-well plate containing QUANTI-BlueTM Solution. Supernatant and QUANTI-BlueTM Solution were incubated at 37 °C in 5% CO2 for approximately an hour and a half. Following incubation, optical density (OD) at 630 nm was measured for each well using a BioTek Synergy H1 microplate reader under normal read speed and with a delay of 100 msec.

J-Lat clone 10.6 cells = experiment: J-Lat HIV latency reversal assay (GFP expression); type: cell-based, Human; conditions: J-Lat 10.6; ascending concentrations; 48 hours
Excerpt: Having shown that our lead compounds bind cell-free PKC isoforms, enter cells, translocate PKC-GFP fusion proteins, and activate NF-κB transcription factors, we next set out to determine whether our analogs were capable of reversing HIV from latency. We performed in vitro assays using T lymphocyte J-Lat clone 10.6, which contains a latent near full-length replication-incompetent integrated HIV DNA genome ([72]). J-Lat 10.6 lacks two viral genes, env and nef, which encode for the envelope protein and an accessory protein, respectively, and thus cannot initiate a spreading HIV infection. The integrated HIV provirus also encodes a GFP reporter gene, allowing latency reversal to be measured by quantification of GFP expression (fig. S1). […] In this latency reversal assay, we quantified GFP expression 48 hours after compound addition and observed bryostatin 1 to be maximally effective at concentrations of 40 nM or higher with latency reversal in 12% of cells (Fig. 8). Given the efficacy of bryostatin 1 as an LRA ([73], [74]), EBC-46 and many of its analogs tested in this J-Lat assay induced latency reversal in >90% of cells. […] SUW427, an esterase-releasable prodrug of EBC-46, also performed similarly to EBC-46 with a maximum efficacy of latency reversal in >90% of cells at a dose of 250 nM. […] The gradual release of EBC-46 from its prodrug form provides an alternative mode of administration that avoids the bolus effect associated with rapid drug administration ([17]). […] This is consistent with its lack of activity in the NF-κB activation assay and its design as a negative control as it is structurally similar to EBC-46 but unable to bind to the C1 domain of PKC at the concentrations used in this assay as it lacks a complete pharmacophore.
HIV latency reversal in-vitro assay
Human T Lymphocyte J-Lat Full Length Cell Line 10.6 (cat #9849) was obtained through the NIH HIV Reagent Program, Division of AIDS, NIAID, NIH and was contributed to the NIH HIV Reagent Program by Dr. Eric Verdin (70). J-Lat 10.6 cells were plated at 5 × 10^5 cells in 180 μL of RF10 media consisting of RPMI media supplemented with 1% Penicillin/Streptomycin and 10% Fetal Bovine Serum (FBS) in 96 -well U -bottom plates. J -Lat 10.6 cells were then stimulated for 48 hr by adding 20 μL of newly designed and synthesized tigilanol tiglate analogs, PKC modulators (bryostatin 1) as our positive control or med ia only (mock) as our negative control. Our negative control was RF10 media as the tigilanol tiglate analogs were freshly diluted with RF10 prior to plating. The final volume was 200 μL per well. Experiments were performed in three independent biological replicates, each completed in technical duplicates (n = 6). After 48 hr stimulation, 96 - well U -bottom plates were centrifuged at 296 RCF for 7 minutes to pellet cells, which were resusp ended in 200 μL of freshly prepared 2% paraformaldehyde (PFA) in PBS. GF P expression was measured 24 -hours post -fixation using the FITC channel on a LSR Fortessa (BD Biosciences) flow cytometer. Data analysis was conducted with FlowJo software version 10.8.1.

Compound: C/C=C(\C)C(=O)O[C@@H]1[C@@H](C)[C@]2(O)[C@@H]3C=C(C)[C@H](OC(=O)C=C(C)C)[C@@]3(O)[C@H](O)C(CO)=C[C@H]2[C@@H]2C(C)(C)[C@]12OC(=O)[C@@H](C)CC [SUW425]
- NF-κB activation (optical density, 630 nm) (NF-κB pathway; 50 nM): 0.34 optical density, 630 nm
- NF-κB activation (optical density, 630 nm) (NF-κB pathway; 500 nM): 0.47 optical density, 630 nm
- NF-κB activation in words (NF-κB pathway): minimal NF-κB activation at both 50 and 500 nM
- HIV latency reversal in words (J-Lat clone 10.6 cells): required a higher dose than EBC-46 before we detected reversal activity

Compound: C/C=C(\C)C(=O)O[C@@H]1[C@@H](C)[C@@]2(O)[C@H]([C@@H]3C(C)(C)[C@]13OC(=O)C1CCC1)[C@@H]1O[C@]1(CO)[C@@H](O)[C@]1(O)C(=O)C(C)=C[C@H]12 [SUW406]
- NF-κB activation (optical density, 630 nm) (NF-κB pathway; 50 nM): 0.38 optical density, 630 nm
- NF-κB activation (optical density, 630 nm) (NF-κB pathway; 500 nM): 0.57 optical density, 630 nm
- NF-κB activation in words (NF-κB pathway): comparable activity to EBC-46 at 50 and 500 nM
- HIV latency reversal in words (J-Lat clone 10.6 cells): required a higher dose than EBC-46 before we detected reversal activity

Compound: C/C=C(\C)C(=O)O[C@@H]1[C@@H](C)[C@@]2(O)[C@H]([C@@H]3C(C)(C)[C@]13OC(=O)[C@H](C)CC)[C@@H]1O[C@]1(CO)[C@@H](O)[C@]1(O)C(=O)C(C)=C[C@H]12 [SUW407]
- NF-κB activation (optical density, 630 nm) (NF-κB pathway; 50 nM): 0.42 optical density, 630 nm
- NF-κB activation (optical density, 630 nm) (NF-κB pathway; 500 nM): 0.60 optical density, 630 nm
- NF-κB activation in words (NF-κB pathway): comparable activity to EBC-46 at 50 and 500 nM
- HIV latency reversal in words (J-Lat clone 10.6 cells): required a higher dose than EBC-46 before we detected reversal activity

Compound: C/C=C(\C)C(=O)O[C@@H]1[C@@H](C)[C@@]2(O)[C@H]([C@@H]3C(C)(C)[C@]13OC(=O)c1ccccc1)[C@@H]1O[C@]1(CO)[C@@H](O)[C@]1(O)C(=O)C(C)=C[C@H]12 [SUW428]
- NF-κB activation (optical density, 630 nm) (NF-κB pathway; 50 nM): 0.31 optical density, 630 nm
- NF-κB activation (optical density, 630 nm) (NF-κB pathway; 500 nM): 0.43 optical density, 630 nm
- NF-κB activation in words (NF-κB pathway): less effective at inducing NF-κB activation than EBC-46 at 500 nM
- HIV latency reversal in words (J-Lat clone 10.6 cells): required a higher dose than EBC-46 before we detected reversal activity

Compound: C/C=C(\C)C(=O)O[C@@H]1[C@@H](C)[C@@]2(O)[C@@H](C=C(CO)C[C@]3(O)C(=O)C(C)=C[C@@H]23)[C@@H]2C(C)(C)[C@]12OC(=O)[C@@H](C)CC [SUW402]
- NF-κB activation, times the basal level (DMSO control) (NF-κB pathway; 50 nM): approximately three
- NF-κB activation (optical density, 630 nm) (NF-κB pathway; 50 nM): 0.71 optical density, 630 nm
- NF-κB activation (optical density, 630 nm) (NF-κB pathway; 500 nM): 0.63 optical density, 630 nm
- NF-κB activation in words (NF-κB pathway): strong activation of NF-κB at higher concentrations but with an inverse dose response

Compound: CC[C@H](C)C(=O)O[C@@]12[C@H](OC(=O)C3(C)CC3)[C@@H](C)[C@@]3(O)[C@H]([C@@H]1C2(C)C)[C@@H]1O[C@]1(CO)[C@@H](O)[C@]1(O)C(=O)C(C)=C[C@H]13 [SUW413]
- NF-κB activation (optical density, 630 nm) (NF-κB pathway; 50 nM): 0.40 optical density, 630 nm
- NF-κB activation (optical density, 630 nm) (NF-κB pathway; 500 nM): 0.70 optical density, 630 nm
- NF-κB activation in words (NF-κB pathway): comparable activity to EBC-46 at 50 and 500 nM
- HIV latency reversal in words (J-Lat clone 10.6 cells): required a higher dose than EBC-46 before we detected reversal activity

Compound: CC=C(C)C(=O)OC1C(C)C2(O)C(C3OC3(COC)C(O)C3(O)C(=O)C(C)=CC32)C2C(C)(C)C12OC(=O)C(C)CC (stereo not drawn) [SUW426]
- NF-κB activation (optical density, 630 nm) (NF-κB pathway; 50 nM): 0.23 optical density, 630 nm
- NF-κB activation (optical density, 630 nm) (NF-κB pathway; 500 nM): 0.23 optical density, 630 nm
- NF-κB activation in words (NF-κB pathway): did not exhibit NF-κB activation at either concentration tested
- HIV latency reversal in words (J-Lat clone 10.6 cells): did not produce latency reversal at any tested concentration

Compound: C/C=C(\C)C(=O)O[C@@H]1[C@@H](C)[C@@]2(O)[C@H]([C@@H]3C(C)(C)[C@]13OC(=O)[C@@H](C)CC)[C@@H]1O[C@]1(CO)[C@@H](O)[C@]1(O)C(=O)C(C)=C[C@H]12 [EBC-46, Tigilanol tiglate]
- NF-κB activation (optical density, 630 nm) (NF-κB pathway; 50 nM): 0.35 optical density, 630 nm
- NF-κB activation, times the basal level (DMSO control) (NF-κB pathway; 500 nM): ~ 2.5 times
- NF-κB activation (optical density, 630 nm) (NF-κB pathway; 500 nM): 0.69 optical density, 630 nm
- NF-κB activation in words (NF-κB pathway): minimal activation of NF-κB relative to the dimethyl sulfoxide (DMSO) control

Compound: C/C=C(\C)C(=O)O[C@@H]1[C@@H](C)[C@]2(O)[C@@H]3C=C(C)[C@H](OC(=O)c4ccccc4)[C@@]3(O)[C@H](O)C(CO)=C[C@H]2[C@@H]2C(C)(C)[C@]12OC(=O)[C@@H](C)CC [SUW422]
- NF-κB activation (optical density, 630 nm) (NF-κB pathway; 50 nM): 0.26 optical density, 630 nm
- NF-κB activation (optical density, 630 nm) (NF-κB pathway; 500 nM): 0.36 optical density, 630 nm
- NF-κB activation in words (NF-κB pathway): minimal NF-κB activation at both 50 and 500 nM
- HIV latency reversal in words (J-Lat clone 10.6 cells): required a higher dose than EBC-46 before we detected reversal activity

Compound: CC[C@H](C)C(=O)O[C@@]12[C@H](OC(=O)N3CCCC3)[C@@H](C)[C@@]3(O)[C@H]([C@@H]1C2(C)C)[C@@H]1O[C@]1(CO)[C@@H](O)[C@]1(O)C(=O)C(C)=C[C@H]13 [SUW424]
- NF-κB activation (optical density, 630 nm) (NF-κB pathway; 50 nM): 0.34 optical density, 630 nm
- NF-κB activation (optical density, 630 nm) (NF-κB pathway; 500 nM): 0.34 optical density, 630 nm
- NF-κB activation in words (NF-κB pathway): minimal activity in this assay at 50 and 500 nM

Compound: C/C=C(\C)C(=O)O[C@@H]1[C@@H](C)[C@@]2(O)[C@H]([C@@H]3C(C)(C)[C@]13OC(=O)N1CCCC1)[C@@H]1O[C@]1(CO)[C@@H](O)[C@]1(O)C(=O)C(C)=C[C@H]12 [SUW421]
- NF-κB activation (optical density, 630 nm) (NF-κB pathway; 50 nM): 0.30 optical density, 630 nm
- NF-κB activation (optical density, 630 nm) (NF-κB pathway; 500 nM): 0.31 optical density, 630 nm
- NF-κB activation in words (NF-κB pathway): minimal activity in this assay at 50 and 500 nM
